From patent US10329262B2, “Quinazolinone antibiotics” (priority 2013, dated 2019)

Columns and labels:
S. aureus NRS100 = assay: MIC, CLSI broth microdilution, S. aureus NRS100; type: cell-based, Staphylococcus aureus
Method: (§1) MICs were evaluated following the CLSI microdilution method in BBL™ Mueller-Hinton II broth (Wikler et al., Clinical Laboratory Standards Institute Document M7-A7, 29 (2009)). Briefly, two-fold serial dilutions of compound were prepared in triplicate in 96-well plates and inoculated with 5×10^5 cfu/mL of the bacterial suspension. Plates were incubated at 37° C. for 16-20 hours.

S. aureus VRS1 = assay: MIC, CLSI broth microdilution, S. aureus VRS1; type: cell-based, Staphylococcus aureus
Method: as §1

S. aureus VRS2 = assay: MIC, CLSI broth microdilution, S. aureus VRS2; type: cell-based, Staphylococcus aureus
Method: as §1

MRSA ATCC 27660 = assay: Mouse peritonitis model of MRSA infection; type: in vivo, mice
Method: We evaluated several compounds in in vivo mouse infection models, as well as in pharmacokinetic (PK) studies in mice (Table 1). The in vivo efficacy was determined using the rapid mouse peritonitis model of infection, in which the end point is death or survival in 48 hours. We initially dosed the compounds intravenously (iv) at a single dose level. If the compound has good in vivo efficacy after iv administration, we then evaluated efficacy at five dose levels. We also investigated in vivo efficacy after oral (po) administration.
Groups (n=6/group) of mice were infected with MRSA (0.5 mL of ATCC 27660 at a final concentration of 5×10^7 CFU/mL in 5% porcine mucin) intraperitoneally (ip). Following infection, mice were given iv doses by tail vein injection of compound 2, vancomycin (5 mg/kg, positive control), or vehicle at 30 min and 4.5 h after infection. The number of surviving mice was monitored for 48 h. The negative control (vehicle) typically results in the death of all mice. Quinazolinone 2 was dissolved in saline, sterile-filtered, and administered at doses of 2.5, 5, 7.5, 10, 20, and 30 mg/kg. The ED50 value was calculated using GraphPad prism 5.

in vivo = settings: mouse, in vivo
Method: We conducted first fast PK studies (n=2 mice per time point, 5 time points) dosing the compounds iv, followed by full PK studies for selected compounds (n=3 mice per time point, 10-12 time points per route of administration, iv and po).
A single dose of compound 2 was administered to mice (n=3 per time point) by tail vein injection or by oral gavage at 10 mg/kg. Blood was collected by cardiac puncture in heparinized syringes at 2, 5, 20, and 40 min and at 1, 2, 3, 4, 8, 18, and 24 h after iv dosing and at 0.5, 1, 2, 3, 4, 6, 9, 24, and 30 h after po dosing. Blood was centrifuged to obtain plasma. A 50-μL aliquot of plasma was mixed with 100 μL of acetonitrile containing internal standard (5 μM final concentration), followed by centrifugation at 20,000 g for 15 min. The supernatant was analyzed by reverse-phase UPLC. PK parameters were calculated as described in the Plasma protein binding and Pharmacokinetics sections below (see also Gooyit et al. J. Med. Chem. 54, 6676-6690 (2011)).
The area under the concentration-time curve up to the last quantifiable sampling time (AUC0-last) was calculated by the trapezoidal rule. AUC0-∞ was calculated as AUC0-last+(Clast/k), where Clast is the concentration at the last quantifiable sampling time and k is the elimination rate constant. The concentration at time=0 (C0) was estimated from the first sampling times by back-extrapolation using log-linear regression analysis. Half-lives (t1/2α and t1/2β) were estimated from the linear portion of the initial or terminal concentration-time data by linear regression, where the slope of the line was the rate constant k and t1/2α=ln 2/k. Volume of distribution (Vd) was calculated as the dose divided by the initial concentration (C0). Clearance (CL) was calculated from the dose divided by AUC0-∞. Oral bioavailability (F) was calculated by dividing the AUCpo by the AUCiv, as equivalent iv and po doses were administered.

HepG2 cells = assay: cells; settings: Homo sapiens, HepG2, 16 h, read-out: IC50, XTT cell proliferation assay
Method: HepG2 cells (ATCC HB-8065) were maintained in monolayer culture at 37° C. and 5% CO2 in Dulbecco's Modified Eagle's Medium supplemented with 10% fetal bovine serum, non-essential amino acids, 2 mM L-glutamine, and 1% penicillin-streptomycin. […] The cells were washed with Dulbecco's PBS twice, 150 μL of XTT working solution was added to each well, followed by 3-h incubation. Absorbance at 475 nm (test wavelength) and 660 nm (reference wavelength) was read with a microplate reader. Experiments were performed in triplicate and repeated twice. IC50 values were calculated using GraphPad prism 5.

[1] = Plasma protein binding, rapid equilibrium dialysis, mouse; type: in vitro ADME; settings: pH 7.4, mice, 6 h dialysis
Method: Aliquots from both chambers were quenched with 1:2 v/v acetonitrile containing an internal standard. The samples were concentrated to dryness on a miVac concentrator and the residue resuspended in 50:50 acetonitrile/water. Samples were analyzed by reverse-phase ultraperformance liquid chromatography (UPLC) with UV/Vis detection. Plasma protein binding of quinazolinone 2 was 98.0±0.04% in mice and 96.5±0.70% in humans.

## N#Cc1ccc(/C=C/c2nc3ccccc3c(=O)n2-c2cccc(C(=O)O)c2)cc1.[Na] [Compound 2, Sodium (E)-3-(3-carboxyphenyl)-2-(4-cyanostyryl)quinazolin-4(3H)-one]
S. aureus NRS100; Staphylococcus aureus, NRS100
  MIC: 16 µg/mL
S. aureus NRS100; Table 2.1, S. aureus NRS100
  In vitro AB activity (MIC): 16 µg/mL
S. aureus VRS1; Staphylococcus aureus, VRS1
  MIC: 16 µg/mL
S. aureus VRS1; Table 2.1, S. aureus VRS1
  In vitro AB activity (MIC): 16 µg/mL
S. aureus VRS2; Staphylococcus aureus, VRS2
  MIC: 2 µg/mL
S. aureus VRS2; Table 2.1, S. aureus VRS2
  In vitro AB activity (MIC): 2 µg/mL
MRSA ATCC 27660; 10 mg/kg iv at 30 min and 4.5 hr after infection, n = 6, 48 h
  In Vivo Efficacy (survived/total mice): 5/6 @ 10 mg/kg
MRSA ATCC 27660; Staphylococcus aureus, iv administration, dose giving survival of 50% of the animals, read-out: Median effective dose (ED50)
  ED50: 10 mg/kg
In vivo; ICR, iv, 10 mg/kg
  clearance: 7.1 mL/min/kg
  concentration at 24 h: 142 ± 53 ng/mL
  t1/2elimination: 22 h
In vivo; ICR, po, 10 mg/kg
  half-life: 58 h
In vivo; female, ICR, iv
  AUC: 23500 ng·h/mL
  clearance: 7.1 mL/min/kg
In vivo; female, ICR, iv, 10 mg/kg
  Vd: 0.0076 L
  half-life: 22 h
In vivo; female, ICR, po, 10 mg/kg
  AUC: 15500 ng·h/mL
In vivo; female, ICR, po, 10 mg/kg, F (oral bioavailability)
  bioavailability: 66%
In vivo; 10 mg/kg, F (absolute oral bioavailability)
  bioavailability: 66%
In vivo; iv, 10 mg/kg
  AUC(0-inf): 23500 ng·h/mL
  AUC(0-t): 19700 ng·h/mL
  C0: 33000 ng/mL
  Clearance as share of hepatic blood flow in mice: less than 10%
  Distribution t1/2α: 0.243 h
  Vd: 0.303 L/kg
  Volume of distribution: 0.3 L/kg
  clearance: 7.07 mL/min/kg
  concentration at 24 h: 142 ± 53 ng/mL
  t1/2distribution: 0.242 h
  t1/2elimination: 22.3 h
In vivo; iv, 10 mg/kg, 24 h
  Plasma level at 24 hours: 142 ± 53 ng/mL
In vivo; po, 10 mg/kg
  AUC(0-inf): 15500 ng·h/mL
  AUC(0-t): 6550 ng·h/mL
  Cmax: 1290 ng/mL
  Time of maximum concentration: 1 h
  half-life: 58.2 h
  t1/2distribution: 2.06 h
HepG2 cells
  IC50: 63 ± 1 µg/mL
[1]
  fraction unbound at 6 h, 10 μM: 0.02
